According to publication PMC9570207, “Pharmacokinetics of Myo-Inositol in a Wistar Rat Animal Model” (International Journal of Molecular Sciences, 2022):
Where two headings read alike, the source gives them in different places. One block for each compound: values may come before it.

Experiments:
[1] = test system: alkaline phosphatases from bovine intestinal mucosa; set-up: method as in doi:10.1016/S0928-0987(97)00019-5; settings: bovine intestinal alkaline phosphatase; cited from earlier work
[2] = set-up: method as in PMID 32650579; settings: cited from earlier work
[3] = Pharmacokinetics of myo-inositol in serum after oral gavage, one-compartment PK model; format: in vivo, Wistar rat; settings: 2 g/kg oral
Procedure: The experiment was performed on male Wistar rats (n = 9). We used male Wistar rats in our study because hormone changes throughout the female estrus cycle may have caused female rats to react differently, making them unpredictable and providing variable results during repeated experiments. All rats were 6 weeks old and had no morphological features deviating from the standard Wistar animal model. Animals were housed in a temperature-controlled room with a 12 h light/dark cycle and free access to water and food. The study was conducted in compliance with the Local Ethics Committee for Animal Experiments in Olsztyn. Each animal received a solution of myo-inositol (2 g/kg) in distilled water by oral gavage (Agnthos, curved gastric probe, 16G, 3 mm, 75 mm tip). The animals were fasted before the administration of myo-inositol (12 h since the last meal). Food was allowed for 2 h after administration of the compound. Access to water was unlimited. In order to reduce the amount of blood collected from a single animal, the animals were divided into three groups (n = 3).
For removing of proteins, 160 μL of acetonitrile (containing […] of xylitol, as an internal standard) was added to 50 μL of rat plasma and the sample was shaken for 5 min (1300 rpm, Vortex Genie 2, Scientific Industries, Bohemia, NY, USA). After centrifugation (20,000× g at 4 °C for 10 min), the supernatant was transferred into glass chromatographic vials and concentrated in a speed vacuum evaporator to dryness. Dry residues were derivatized with a mixture of trimethylsilylimidazole (TMSI) and pyridine (1:1, v/v). TMS-derivatives of myo-inositol were analyzed by the high-resolution gas chromatography method on a gas chromatograph GC2010Plus (Shimadzu, Tokyo, Japan) with a capillary column ZEBRON ZB-1 (15 m length, 0.25 mm diameter and 0.1 μm film thickness, Phenomenex, Torrance, CA, USA). The injector temperature was 325 °C and the initial column oven temperature was 150 °C. Helium was used as a carrier gas (at a flow rate of 1.18 mL min^−1). Afterwards, the sample injection (1 μL, in a split ratio 10:1) was ramped sequentially to 200 °C at a rate of 20 °C min^−1, to 300 °C at 30 °C min^−1 and to 335 °C at 20 °C min^−1. The final temperature was held for 2.42 min and the total time of analysis was 10 min. The detector was maintained at 350 °C. Myo-inositol was quantified by using the standard: myo-inositol from Sigma. The content of myo-inositol was calculated from the standard curves of appropriate components.
The data fitting was performed with NONMEM software (Version 7.3.0; ICON Development Solutions, Ellicot City, MD, USA) and the Gfortran compiler 9.0. NONMEM runs were executed using Wings for NONMEM (WFN730; http://wfn.sourceforge.net). The NONMEM data processing and plots were performed in Matlab Software (Version 0.1; The MathWorks, Natick, MA, USA). The schematic representation of the PK model is given in Figure 4. dA/dt=−ka∗AA(0)=DPO dX/dt=k−CL/F/V/F∗A+ka∗AX(0)=C0∗V/F where A and X denote the amount of myo-inositol in the absorption and central compartment, F denotes bioavailability, DPO denotes an oral dose of myo-inositol, ka denotes absorption rate constant, kin denotes an endogenous input of myo-inositol, CL denotes clearance, V denotes volume of distribution, and C0 denotes endogenous concentration of myo-inositol. CL and V were estimated as apparent due to uncertain bioavailability (CL/F and V/F). The steady-state concentration of myo-inositol implies the following relationship: k=C0∗CL/F
The concentration of myo-inositol in serum is given by: C=X/V/F
The observed concentrations (Cobs) were related to model predictions through the following equation (proportional residual error model): Cobs=C∗(1+ε) where ε is a normal random variable with standard deviation σ.

[4] = rat, in vivo, po, 25 mg/kg; cited from earlier work
systolic blood pressure = test system: systolic blood pressure; set-up: method as in PMID 33113433; settings: 3 mg/kg, Wistar rats; cited from earlier work
[5] = test system: angiotensin-converting enzyme; set-up: method as in PMID 33113433; settings: cited from earlier work
[6] = 100 mg/kg oral, male Wistar rats, liver

SMILES: O=P(O)(O)OC1[C@H](OP(=O)(O)O)[C@H](O)C(O)[C@H](O)[C@H]1OP(=O)(O)O (stereo partly drawn) [a-trinositol, d-myo-inositol 1,2,6-trisphosphate]
Dephosphorylation by intestinal enzymes [1]: extensive dephosphorylation

SMILES: CO[C@H]1[C@H](O)[C@@H](O)[C@@H](O)[C@H](O)[C@@H]1O [DP, D-pinitol]
Time at which plasma DP level became detectable ([2]; 100 mg/kg oral, 18 h food-deprived male Wistar rats, plasma): 10 min
Time at which liver concentration became detectable [2, 6]: 30 min
Time of peak liver concentration [2, 6]: 120 min
Time of plasma peak ([2]; 100 mg/kg oral, male Wistar rats, plasma): 1 h
Time of peak in liver ([2]; 500 mg/kg oral, Wistar rats, liver): 120 min
Time of peak in plasma ([2]; 500 mg/kg oral, Wistar rats, plasma): 120 min
Accumulation in the liver ([2]; oral DP, Wistar rats, liver): no accumulation was detected
Half-life time, liver ([2]; oral DP, Wistar rats, liver): 154 min
Half-life time, plasma ([2]; oral DP, Wistar rats, plasma): 108 min
Time after which completely cleared ([2]; oral DP, Wistar rats): 6 h

Evidence of harm from the dosage during the study ([3]; Wistar rats): no significant evidence of harm
Time after which the level of MI started to drop ([3]; Wistar rats): 2 h
Time of highest peak of MI after administration ([3]; Wistar rats): 1 h
Serum level approximately after 24 h compared with before administration ([3]; Wistar rats, 24 h): still higher than before administration
k el ([3]; male, rat, serum, secondary parameter, Wistar rats, read-out: Kel, Elimination rate constant, (CL/F)/(V/F) (converted)): 4.72e-05 s⁻¹
half-life ([3]; male, rat, serum, secondary parameter, Wistar rats, read-out: T0.5, Biological half-life, ln(2)/kel (converted)): 245 min
Mean MI in Rat Serum ([3]; rat 1A (ID:1), group 1, times 0, 0.25, 0.5, 1, 24 h): 45.69 µg/mL
Mean MI in Rat Serum ([3]; rat 1B (ID:4), group 2, times 0, 2, 4, 8, 12, 24 h): 45.70 µg/mL
Mean MI in Rat Serum ([3]; rat 1C (ID:7), group 3, times 0, 1.5, 36, 48 h): 46.23 µg/mL
Mean MI in Rat Serum ([3]; rat 2A (ID:2), group 1, times 0, 0.25, 0.5, 1, 24 h): 60.00 µg/mL
Mean MI in Rat Serum ([3]; rat 2B (ID:5), group 2, times 0, 2, 4, 8, 12, 24 h): 46.23 µg/mL
Mean MI in Rat Serum ([3]; rat 2C (ID:8), group 3, times 0, 1.5, 36, 48 h): 49.38 µg/mL
Mean MI in Rat Serum ([3]; rat 3A (ID:3), group 1, times 0, 0.25, 0.5, 1, 24 h): 57.46 µg/mL
Mean MI in Rat Serum ([3]; rat 3B (ID:6), group 2, times 0, 2, 4, 8, 12, 24 h): 39.86 µg/mL
Mean MI in Rat Serum ([3]; rat 3C (ID:9), group 3, times 0, 1.5, 36, 48 h): 38.33 µg/mL
AUC, Area under concentration–time curve, F·D/CL ([3]; secondary parameter, Wistar rats): 2.34 mg·h/L/kg
SMILES: O[C@H]1[C@H](O)[C@@H](O)[C@H](O)[C@@H](O)[C@H]1O [myo-inositol]

SMILES: COC1[C@H](O)[C@H](O)C(O)[C@H](O)[C@H]1O (stereo partly drawn) [LB, L-(+)-bornesitol]
Dose proportionality of peak concentration and AUC [4]: non-linear pharmacokinetics
Time to peak plasma concentration [4]: approximately 1 h
half-life [4]: 72.15 to 123.69 min
Effect on systolic blood pressure (systolic blood pressure): reduced the systolic blood pressure
Angiotensin-converting enzyme inhibition [5]: potent
